In patent US10736891B2, “Composition and method for treating chagas disease” (priority 2016, dated 2020):

Key:
[1] = Blood chemistries and liver biopsies under amiodarone/itraconazole, dogs
[2] = Blood chemistries and liver biopsies under amiodarone/itraconazole, monkeys
in vivo = conditions: human
[3] = cited from earlier work
[4] = in vivo
Protocol: Accordingly, prior to additional testing, a dosage of Itraconazole and Amiodarone was prepared in accordance with the above example, but with nanomilling of the Itraconazole before formulating into pharmaceutical compositions and administration to patients. In this example, a suspension of itraconazole was prepared and then subject to milling using a media mill such as disclosed in Kumar et al., J. Pharm. Sci. 104:3018-3028 (2015), wherein Itraconazole (1%, w/v) was suspended in a desired concentration of an aqueous stabilizer solution, and the prepared suspension was stirred for 30 minutes or more for complete wetting of the drug by the stabilizer solution. The suspension (e.g., 150 mL) was then wet milled or wet grinded using a conventional wet milling or grinding device, namely one manufactured by Netzsch of Exton, Pa. Using this equipment, the mill is operated at a suitable speed, e.g., 2500 rpm in a continuous mode for a time suitable to reduce particle size to a range of 1 and 400 nm, e.g., 75 minutes. The temperature of the sample was maintained at below 25° C. during the process, and two cooling bath recirculators were used, including one attached to the milling device and the other attached to suspension recirculation chambers. […]

[5] = increase from 5 mg/kg to 10 mg/kg once daily; cited from earlier work

Compound: CCCCc1oc2ccccc2c1C(=O)c1cc(I)c(OCCN(CC)CC)c(I)c1 [Amiodarone]
- arrythmias [1]: 0
- hepatic effects (multiple blood chemistries) [1]: 0
- arrythmias [2]: 0
- hepatic effects (multiple blood chemistries) [2]: 0

Compound: CCC(C)n1ncn(-c2ccc(N3CCN(c4ccc(OCC5COC(Cn6cncn6)(c6ccc(Cl)cc6Cl)O5)cc4)CC3)cc2)c1=O (stereo not shown) [Itraconazole]
- Cmax (in vivo; 5 mg/kg): 3550 ng/mL
- increase in plasma Itraconazole level compared with the Cmax of a previous study (Paniz-Mondolfi et al. 2009) (in vivo; 10 mg/kg): 5-6 fold
- Cmax (in vivo; po, 10 mg/kg): 13500 ng/mL
- Itraconazole plasma level when given with food compared with without food [3]: higher
- increase of bioavailability of itraconazole [4]: 2000%
- Itraconazole Cmax increase [5]: 5-6 fold
